Legend:
[1] = system: HAP1 MTAP-deleted cell line; experiment: Viability assay, MTAP-deleted cell line; type: cell-based; settings: Homo sapiens, HAP1, viability assay, MTAP-deleted cell line; read-out: HAP1 MTAP deleted viability
Description: Table 1 additionally indicates IC50 values in a viability assay for the MTAP-deleted cell line (column 10), indicating the effect of treatment with compound on cell survival.

[2] = system: HAP1 MTAP-intact cell line; experiment: SDMA in-cell western assay, HAP1 MTAP-intact; type: cell-based; settings: Homo sapiens, HAP1, SDMA in-cell western, HAP1 MTAP-intact; read-out: MTAP HAP1 intact IC50
How it was run: (§1)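 MTAP-null vs endogenous-MTAP HAP1 isogenic cells; in-cell western SDMA readout; IC50 per line.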

[3] = biological target: T1, PRMT5 (Homo sapiens, UniProt O14744); experiment: PRMT5 biochemical IC50 assay with MTA as cofactor; settings: PRMT5, MTA as cofactor; read-out: MTA IC50
T1 construct: purchased Viva (custom protein)

[4] = biological target: T1, PRMT5; experiment: PRMT5 biochemical IC50 assay with SAM as cofactor; settings: PRMT5, SAM as cofactor; read-out: SAM IC50
[5] = biological target: T1, PRMT5; experiment: PRMT5 biochemical IC50 assay with no cofactor; settings: PRMT5, no cofactor; read-out: No Cofactor/rel IC50
Description: Table 1 indicates IC50 values (μM) against PRMT5 for exemplary compounds in the presence of SAM as cofactor, with no cofactor, and with MTA as cofactor, respectively (columns 4-6). […] Ki values can be calculated from the IC50 values as described in the Examples section. As detailed in the Examples section, for the assay performed in the presence of SAM, IC50=Ki×1.5 (Ki=IC50/1.5).

[6] = system: HAP1 MTAP-deleted cell line; experiment: SDMA in-cell western assay, HAP1 MTAP-deleted; type: cell-based; settings: for IC50: Homo sapiens, HAP1, SDMA in-cell western, HAP1 MTAP-deleted; for MTAP intact/deleted ratio: SDMA in-cell western
How it was run: as §1

[7] = read-out: HAP 1 MTAP deleted IC50
[8] = IC50 ratio HAP1 MTAP-intact / HAP1 MTAP-deleted
[9] = read-out: HAP1 MTAP deleted IC50
[10] = IC50 ratio HAP1 MTAP-intact vs HAP1 MTAP-deleted

T1 sequence (O14744 whole entry): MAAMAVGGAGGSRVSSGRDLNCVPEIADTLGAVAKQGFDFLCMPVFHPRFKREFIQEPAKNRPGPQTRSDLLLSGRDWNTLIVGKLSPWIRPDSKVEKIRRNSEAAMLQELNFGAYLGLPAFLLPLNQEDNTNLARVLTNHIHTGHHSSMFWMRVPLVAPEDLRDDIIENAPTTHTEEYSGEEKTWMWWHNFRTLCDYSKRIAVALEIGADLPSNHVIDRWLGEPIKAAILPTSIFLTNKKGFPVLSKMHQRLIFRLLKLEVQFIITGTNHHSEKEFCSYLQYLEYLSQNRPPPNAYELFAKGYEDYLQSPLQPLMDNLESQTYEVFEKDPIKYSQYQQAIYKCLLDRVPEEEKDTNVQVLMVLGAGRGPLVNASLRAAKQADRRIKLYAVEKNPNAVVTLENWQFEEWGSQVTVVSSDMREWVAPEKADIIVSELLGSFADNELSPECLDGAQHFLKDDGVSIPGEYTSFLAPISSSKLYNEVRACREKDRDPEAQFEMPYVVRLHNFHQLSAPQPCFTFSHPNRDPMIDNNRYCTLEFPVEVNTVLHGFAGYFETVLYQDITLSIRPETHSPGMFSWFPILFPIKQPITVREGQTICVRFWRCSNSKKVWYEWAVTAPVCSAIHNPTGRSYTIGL
T1 sequence (Q9BQA1 whole entry partner): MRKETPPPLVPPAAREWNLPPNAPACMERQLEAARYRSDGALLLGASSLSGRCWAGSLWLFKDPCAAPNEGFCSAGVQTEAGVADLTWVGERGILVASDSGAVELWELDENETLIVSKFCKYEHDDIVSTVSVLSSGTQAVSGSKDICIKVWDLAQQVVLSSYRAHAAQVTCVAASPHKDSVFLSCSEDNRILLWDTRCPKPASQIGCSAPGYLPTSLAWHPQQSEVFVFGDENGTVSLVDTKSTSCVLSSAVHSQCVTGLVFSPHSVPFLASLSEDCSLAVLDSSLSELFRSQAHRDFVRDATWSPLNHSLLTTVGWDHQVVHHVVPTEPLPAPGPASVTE

| IC50 [2] [nM] | IC50 [3] [nM] | IC50 [4] [nM] | IC50 [5] [nM] | IC50 [6, 7] [nM] | IC50 [6, 9] [nM] | SMILES | IC50 [1] [nM] | MTAP intact/deleted ratio [6, 8] | MTAP intact/deleted ratio [6, 10] |
| --- | --- | --- | --- | --- | --- | --- | --- | --- | --- |
| 100 to 1000 | < 50 | 50 to 500 | < 50 | < 100 |  | C[C@H]1CC[C@H](c2ccc3sc(C(F)(F)F)nc3c2)N(C(=O)C(=O)Nc2cncc(C(N)=O)c2)C1 (single isomer, unassigned) [Compound 1023] | < 1000 | A (an IC50 ratio greater than or equal to 10 fold) |  |
| 100 to 1000 | < 50 | 50 to 500 | < 50 | < 100 |  | COc1ncc(NC(=O)C(=O)N2C[C@@H](C)CC[C@@H]2c2ccc3sc(C(F)(F)F)nc3c2)cc1C(N)=O (single isomer, unassigned) [Compound 1024] | < 1000 | A (an IC50 ratio greater than or equal to 10 fold) |  |
| > 1000 | > 500 | > 500 | > 500 | > 1000 |  | Cc1cc(NC(=O)C(=O)N2C[C@H](C)CC[C@H]2c2cscn2)cnc1N (single isomer, unassigned) [Compound 1028] | > 10000 | C (an IC50 ratio of less than 3 fold) |  |
| > 1000 | > 500 | > 500 | > 500 | > 1000 |  | C[C@@H]1CC[C@@H](c2ccc3sc(C(F)(F)F)nc3c2)N(C(=O)C(=O)Nc2cncc(C(N)=O)c2)C1 (single isomer, unassigned) [Compound 1029] | > 10000 | B (an IC50 ratio greater than or equal to 3 fold but lower than 10 fold) |  |
| > 1000 | > 500 | > 500 | > 500 | > 1000 |  | COc1ncc(NC(=O)C(=O)N2C[C@@H](C)CC[C@@H]2c2cscn2)cc1C(N)=O (single isomer, unassigned) [Compound 1033] | > 10000 | B (an IC50 ratio greater than or equal to 3 fold but lower than 10 fold) |  |
| > 1000 | > 500 | > 500 | > 500 | 100 to 1000 |  | Cc1cc(NC(=O)C(=O)N2C[C@@H](C)CC[C@@H]2c2ccc3c(cnn3C)c2)cnc1N (single isomer, unassigned) [Compound 1037] | > 10000 | A (an IC50 ratio greater than or equal to 10 fold) |  |
| > 1000 | > 500 | > 500 | > 500 | 100 to 1000 |  | Cc1cc(NC(=O)C(=O)N2C[C@@H](C)CC[C@@H]2c2ccc3nn(C)cc3c2)cnc1N (single isomer, unassigned) [Compound 1040] | > 10000 | A (an IC50 ratio greater than or equal to 10 fold) |  |
| > 1000 | < 50 | 50 to 500 | 50 to 500 | < 100 |  | COc1ncc(NC(=O)C(=O)N2C[C@H](C)CC[C@H]2c2cscn2)cc1C(N)=O (single isomer, unassigned) [Compound 1042] | 1000 to 10000 | A (an IC50 ratio greater than or equal to 10 fold) |  |
| 100 to 1000 | < 50 | 50 to 500 | < 50 | < 100 |  | Cc1cc(NC(=O)C(=O)N2C[C@H](C)CC[C@H]2c2ccc3nn(C)cc3c2)cnc1N (single isomer, unassigned) [Compound 1044] | < 1000 | A (an IC50 ratio greater than or equal to 10 fold) |  |
| > 1000 | > 500 | > 500 | > 500 |  | > 1000 | Cc1cncc(NC(=O)C(=O)N2C[C@@H](C)CC[C@H]2c2cccc(F)c2)c1 (single isomer, unassigned) [Compound 1080] | > 10000 |  | C (an IC50 ratio of less than 3 fold) |
| > 1000 | > 500 | > 500 | > 500 |  | > 1000 | Cc1cc(NC(=O)C(=O)N2C[C@@H](C)CC[C@@H]2c2ccc(N)cc2)cnc1N (single isomer, unassigned) [Compound 1081] | > 10000 |  | B (an IC50 ratio greater than or equal to 3 fold but lower than 10 fold) |
| > 1000 | > 500 | > 500 | > 500 |  | > 1000 | C[C@@H]1CC[C@@H](c2cc(F)cc(Cl)c2)N(C(=O)C(=O)Nc2cncc(C(N)=O)c2)C1 (single isomer, unassigned) [Compound 1084] | > 10000 |  | C (an IC50 ratio of less than 3 fold) |
| 100 to 1000 | < 50 | 50 to 500 | < 50 |  | < 100 | Cc1cc(NC(=O)C(=O)N2C[C@H](C)[C@@H](OC(C)C)C[C@H]2c2ccccc2)cnc1N (single isomer, unassigned) [Compound 1088] | < 1000 |  | A (an IC50 ratio greater than or equal to 10 fold) |
| 100 to 1000 | < 50 | 50 to 500 | 50 to 500 |  | < 100 | CCc1cc(NC(=O)C(=O)N2C[C@H](C)[C@H](OC)C[C@H]2c2ccc(N3CCN(C)CC3)cc2)cnc1N (single isomer, unassigned) [Compound 1089] | < 1000 |  | A (an IC50 ratio greater than or equal to 10 fold) |
| 100 to 1000 | < 50 | 50 to 500 | < 50 |  | < 100 | CCc1cc(NC(=O)C(=O)N2C[C@H](C)CC[C@H]2c2ccc(N3CCN(CC)CC3)cc2)cnc1N (single isomer, unassigned) [Compound 1097] | < 1000 |  | A (an IC50 ratio greater than or equal to 10 fold) |
| 100 to 1000 | < 50 | 50 to 500 | < 50 |  | < 100 | CCc1cc(NC(=O)C(=O)N2C[C@@H](C)CC[C@@H]2c2ccc(N3CCN(C)CC3)nc2)cnc1N (single isomer, unassigned) [Compound 1103] | < 1000 |  | A (an IC50 ratio greater than or equal to 10 fold) |
| < 100 | < 50 | < 50 | < 50 |  | < 100 | COc1ncc(NC(=O)C(=O)N2C[C@@H](C)CC[C@@H]2c2ccc3sc(C4CC(C)(C)N(C)C(C)(C)C4)nc3c2)cc1C(N)=O (single isomer, unassigned) [Compound 1108] | < 1000 |  | A (an IC50 ratio greater than or equal to 10 fold) |
| 100 to 1000 | < 50 | < 50 | < 50 |  | < 100 | COc1ncc(NC(=O)C(=O)N2C[C@@H](C)CC[C@@H]2c2ccc3sc(C4(CN(C)C)CC4)nc3c2)cc1C(N)=O (single isomer, unassigned) [Compound 1109] | < 1000 |  | A (an IC50 ratio greater than or equal to 10 fold) |
| 100 to 1000 | < 50 | 50 to 500 | < 50 |  | < 100 | CCc1cc(NC(=O)C(=O)N2CC(C)CCC2c2ccc(N3CCC4C(CCCN4C)C3)cc2)cnc1N (single isomer, unassigned) [Compound 1111] | < 1000 |  | A (an IC50 ratio greater than or equal to 10 fold) |
| > 1000 | > 500 | > 500 | > 500 |  | > 1000 | CCc1cc(NC(=O)C(=O)N2C[C@H](C)CC[C@H]2c2ccc(N3CCN(C)CC3)cc2)cnc1N (single isomer, unassigned) [Compound 1116] | > 10000 |  |  |
| 100 to 1000 | < 50 | 50 to 500 | < 50 |  | < 100 | C[C@H]1CC[C@H](c2cccc(Cl)c2)N(C(=O)C(=O)Nc2cnc(N)c(C3CC3)c2)C1 (single isomer, unassigned) [Compound 1119] | < 1000 |  | A (an IC50 ratio greater than or equal to 10 fold) |
| > 1000 | > 500 | > 500 | > 500 |  | > 1000 | Cc1cc(NC(=O)C(=O)N2C[C@H](C)CC[C@H]2c2cc3cn[nH]c3s2)cnc1N (single isomer, unassigned) [Compound 1120] | > 10000 |  |  |
| > 1000 | > 500 | > 500 | > 500 |  | > 1000 | Cc1cc(NC(=O)C(=O)N2C[C@H](C)CC[C@H]2c2cccc(N3CCN(C)CC3)c2)cnc1N (single isomer, unassigned) [Compound 1121] | > 10000 |  |  |

— patent US11999727B2 (Tango Therapeutics, Inc., priority 2020, dated 2024)
